US20110065916A1, “METHOD OF MAKING IMIDAZOAZEPINONE COMPOUNDS” (priority 2007, published 2011)

System: human T-bet
Test: HEKT-bet-luc assay (normalized HEKT-bet IC50)
Type: cell-based
Settings: Homo sapiens, HEK293, 24 h, Table 4, engineered HEK cells, compound 24 hours, normalized to reference ER-819544
Description: HEKT-bet-luc assay: This assay measures a T-bet dependent reporter (luciferase) activity in engineered HEK cells that express a human T-bet and a T-box responsive element driving luciferase reporter. HEKT-bet cells were plated at 2×10^4/well in 96-well plate and compound was added into cell culture for 24 hours. Luciferase activity was measured by adding 50 μl of Steady-Glo reagent (Promega) and samples were read in Victor V reader (PerkinElmer). The activity of compound was determined by comparing compound treated samples to non-compound treated vehicle controls. The IC50 values were calculated utilizing a maximum value corresponding to the amount of luciferase in the absence of a test compound and a minimum value corresponding to a test compound value obtained at maximum inhibition.
Determination of Normalized HEKT-bet IC50 values: Compounds were assayed in microtiter plates. Each plate included a reference compound which was ER-819544. The un-normalized IC50 value for a particular compound was divided by the IC50 value determined for the reference compound in the same microtiter plate to provide a relative potency value. The relative potency value was then multiplied by the established potency of the reference compound to provide the normalized HEKT-bet IC50 value. […] The IC50 values provided herein were obtained using this normalization method.

C=C(C)CN1C(=O)N2Cc3cc(OC)cc(OC)c3[C@@H](C)C=C2C12CCN(Cc1cc(C)cc(C)c1)CC2 (single isomer, unassigned) [ER-820006]
IC50: 60 nM

CCN1C(=O)N2Cc3cc(OC)cc(OC)c3[C@@H](C)C=C2C12CCN(Cc1cccn1C)CC2 [ER-819924]
IC50: 50 nM

CCN1C(=O)N2Cc3cc(OC)cc(OC)c3[C@@H](C)C=C2C12CCN(Cc1cccc(-n3cncn3)c1)CC2 [ER-811302-01]
IC50: 250 nM

CCN1C(=O)N2Cc3cc(OC)cc(OC)c3[C@H](C)C=C2C12CCN(Cc1nc3ccccc3n1C)CC2 [ER-819927]
IC50: 210 nM

CCN1C(=O)N2Cc3cc(OC)cc(OC)c3[C@@H](C)C=C2C12CCN(Cc1cccnc1C)CC2 [ER-819832-01]
IC50: 57 nM

CCN1C(=O)N2Cc3cc(OC)cc(OC)c3[C@@H](C)C=C2C12CCN(Cc1ccc3nn[nH]c3c1)CC2 [ER-819820-01]
IC50: 90 nM

CCN1C(=O)N2Cc3cc(OC)cc(OC)c3[C@@H](C)C=C2C12CCN(Cc1nn(C)c3ccccc13)CC2 [ER-819800-01]
IC50: 23 nM

CCN1C(=O)N2Cc3cc(OC)cc(OC)c3[C@@H](C)C=C2C12CCN(Cc1cccc3nccnc13)CC2 [ER-819953-01]
IC50: 26 nM

CCN1C(=O)N2Cc3cc(OC)cc(OC)c3[C@@H](C)C=C2C12CCN(Cc1sncc1C)CC2 [ER-819842-01]
IC50: 81 nM

CCN1C(=O)N2Cc3cc(OC)cc(OC)c3[C@H](C)C=C2C12CCN(Cc1cc(C)cc(C)c1)CC2 [ER-819763]
IC50: 550 nM

CCN1C(=O)N2Cc3cc(OC)cc(OC)c3[C@H](C)C=C2C12CCN(Cc1ccc(F)c(OC)c1)CC2 [ER-819948]
IC50: > 10000 nM

CCN1C(=O)N2Cc3cc(OC)cc(OC)c3[C@@H](C)C=C2C12CCN(Cc1nccn1OCc1ccccc1)CC2 [ER-820009-00]
IC50: 110 nM

COc1cc2c(c(OC)c1)[C@@H](C)C=C1N(C2)C(=O)N(C[C@@H](O)CO)C12CCN(Cc1cc(C)cc(C)c1)CC2 (single isomer, unassigned) [ER-819788]
IC50: 30 nM

CCN1C(=O)N2Cc3cc(OC)cc(OC)c3[C@@H](C)C=C2C12CCN(Cc1cccn1-c1cccnc1)CC2 [ER-819979-01]
IC50: 120 nM

CCN1C(=O)N2Cc3cc(OC)cc(OC)c3[C@@H](C)C=C2C12CCN(Cc1cccc3cccnc13)CC2 [ER-819955-01]
IC50: 20 nM

CCN1C(=O)N2Cc3cc(OC)cc(OC)c3[C@@H](C)C=C2C12CCN(Cc1cn3ccccc3n1)CC2 [ER-811292-01]
IC50: 130 nM

CCN1C(=O)N2Cc3cc(OC)cc(OC)c3[C@@H](C)C=C2C12CCN(Cc1cccn1-c1ccccc1C(F)(F)F)CC2 [ER-819849-01]
IC50: 220 nM

CCN1C(=O)N2Cc3cc(O)cc(O)c3[C@@H](C)C=C2C12CCN(Cc1cc(C)cc(C)c1)CC2 [ER-819888-00]
IC50: 300 nM

CCN1C(=O)N2Cc3cc(OC)cc(OC)c3[C@@H](C)C=C2C12CCN(Cc1ccc3nn(C)nc3c1)CC2 [ER-819847-01]
IC50: 35 nM

CCN1C(=O)N2Cc3cc(OC)cc(OC)c3[C@@H](C)C=C2C12CCN(Cc1nc(C)oc1C)CC2 [ER-811283-01]
IC50: 53 nM

CCN1C(=O)N2Cc3cc(OC)cc(OC)c3[C@@H](C)C=C2C12CCN(Cc1nc(OC)cc(OC)n1)CC2 [ER-820004-01]
IC50: 67 nM

CCN1C(=O)N2Cc3cc(OC)cc(OC)c3[C@@H](C)C=C2C12CCN(Cc1c[nH]nc1C)CC2 [ER-819826-01]
IC50: 67 nM

CCN1C(=O)N2Cc3cc(OC)cc(OC)c3[C@@H](C)C=C2C12CCN(Cc1nc3ccccc3o1)CC2 [ER-819981-01]
IC50: 200 nM
